The results in this text go back to ChEMBL document CHEMBL1151388, “Isolation and Structure of 14,15-Epoxyprieurianin From the South American Tree Guarea guidona” (1982).

The test system of test [1] is P388. Put plainly: Cytotoxicity against mouse P388 cells. As to conditions: for EC50: read-out: ED50 (the source's name). The format is functional.
In test [2] the test system is P388. Put plainly: In vivo cytotoxicity against mouse P388 cells up to 8 mg/kg. It is filed as functional, organism-based. More on the design: dose 8 mg/kg.

Converted amounts (≈) assume the structure as drawn. The source made the active and inactive calls. The rule behind the calls is not given here.

For the compound `C=C1[C@H]([C@]2(C)[C@@H](OC(C)=O)CC(=O)O[C@](C)(COC(C)=O)[C@@H]2CC(=O)OC)[C@@H](OC=O)[C@H](OC(=O)[C@H](O)[C@H](C)CC)[C@]2(C)[C@@H](c3ccoc3)C[C@@H]3O[C@]132`, in the test on P388 [1], the EC50 was 0.47 µg/mL (≈ 0.629 µM). As to `C=C1[C@@H]([C@@]2(C)[C@@H](OC(C)=O)CC(=O)O[C@](C)(COC(C)=O)[C@@H]2C(=O)OC)[C@@H](OC=O)[C@H](OC(=O)[C@H](O)[C@H](C)CC)[C@@]2(C)[C@H](c3ccoc3)CC(=O)[C@]12O` [PRIEURIANIN], in the test on P388 [1], the EC50 is 4.4 µg/mL (≈ 5.88 µM). In addition, in the test with P388 [2], the result was inactive.

In the case of `CC1(C)C(=O)C=C[C@]2(C)[C@H]3CC[C@@]4(C)[C@H](c5ccoc5)OC(=O)[C@H]5O[C@]54[C@]3(C)C(=O)C[C@@H]12`, in the test on P388 [1], the outcome was inactive.
